Source: US20240174618A1, “SUBSTITUTED (2-HETEROARYLOXYPHENYL)SULFONATES, SALTS THEREOF AND THEIR USE AS HERBICIDAL AGENTS” (Bayer Aktiengesellschaft, priority 2021, published 2024)

Columns and labels:
Format in all cases: in vivo
[1] = system: Alopecurus myosuroides (ALOMY); assay: E. Herbicidal post-emergence efficacy, ALOMY
How it was run: (§1)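 Greenhouse post-emergence spray, one-leaf stage (2–3 wk after sowing, sandy loam); WP/EC formulation, aqueous + 0.5% additive, 600 l/ha water; rates 320 g/ha or less. Visual rating ~3 wk later vs untreated; 0% = control-like, 100% = dead.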

Lolium rigidum (LOLRI) = assay: B. Herbicidal post-emergence efficacy, LOLRI
How it was run: (§2)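 Weeds grown in sandy loam in greenhouse and sprayed at the one-leaf stage, 2–3 weeks after sowing, with WP or EC formulations plus 0.5% additive at 600 L/ha water. Injury rated visually versus untreated controls after about 3 weeks (100% = dead, 0% = like control); rates up to 1280 g/ha.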

Zea mays (ZEAMX) = assay: F. Post-emergence effect on useful plants, ZEAMX; conditions: useful plant, application rate 80 g/ha
How it was run: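 Crop plants grown in sandy loam in the greenhouse were sprayed at the one-leaf stage, 2-3 weeks after sowing, with WP or EC formulations plus 0.5% additive at 600 l/ha water. Damage was scored visually after about 3 weeks against untreated controls (0% = like control, 100% = dead).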

Veronica persica (VERPE) = assay: B. Herbicidal post-emergence efficacy, VERPE
How it was run: as §2

[2] = system: Pharbitis purpurea (PHBPU); assay: C. Herbicidal pre-emergence efficacy, PHBPU; conditions: scored after about 3 weeks
From the text: (§3) Seeds of monocotyledonous and dicotyledonous weed plants and crop plants were placed in plastic or organic planting pots and covered with soil. The compounds of the invention, formulated in the form of wettable powders (WP) or as emulsion concentrates (EC), were then applied to the surface of the covering soil as aqueous suspension or emulsion with addition of 0.5% additive at a water application rate equivalent to 600 l/ha (converted). After the treatment, the pots were placed in a greenhouse and kept under good growth conditions for the test plants. After about 3 weeks, the efficacy of the preparations was scored visually in comparison with untreated controls as percentages. For example, • 100% efficacy=plants have died, • 0% efficacy=like untreated control plants.
(§4) Tables C1a to C14b below show the effects of selected compounds of the general formula (I) according to table 1 on various harmful plants at an application rate corresponding to 320 g/ha or less, which were obtained by the experimental procedure mentioned above.

Avena fatua (AVEFA) = assay: C. Herbicidal pre-emergence efficacy, AVEFA; conditions: 320 g/ha, scored after about 3 weeks
From the text: as §3, §4

[3] = system: Alopecurus myosuroides (ALOMY); assay: B. Herbicidal post-emergence efficacy, ALOMY; conditions: rated visually after about 3 weeks
How it was run: as §2

[4] = system: Digitaria sanguinalis (DIGSA); assay: A. Herbicidal pre-emergence efficacy, DIGSA; conditions: scored visually after about 3 weeks vs untreated controls
How it was run: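 Pre-emergence soil-surface spray in sandy loam pots, WP/EC in water plus 0.5% additive, 600 L/ha. Visual % damage rating after about 3 weeks in greenhouse vs. untreated; 0% = control-like, 100% = dead plants. Rates up to 1280 g/ha.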

[5] = system: Digitaria sanguinalis (DIGSA); assay: E. Herbicidal post-emergence efficacy, DIGSA
How it was run: as §1

Post-emergence efficacy against ZEAMX in % (Zea mays (ZEAMX)) | Compound | Post-emergence efficacy against ALOMY in % ([1]; application rate 320 g/ha) | Post-emergence efficacy against LOLRI (Lolium rigidum (LOLRI); 1280 g/ha) | Post-emergence efficacy against VERPE (Veronica persica (VERPE); 80 g/ha) | Post-emergence efficacy against VERPE (Veronica persica (VERPE); 320 g/ha) | Post-emergence efficacy against VERPE (Veronica persica (VERPE); 1280 g/ha) | Pre-emergence efficacy against PHBPU ([2]; 320 g/ha) | Pre-emergence efficacy against AVEFA (Avena fatua (AVEFA)) | Post-emergence efficacy against ALOMY in % ([3]; 320 g/ha) | Post-emergence efficacy against ALOMY in % ([3]; 1280 g/ha) | Post-emergence efficacy against ALOMY in % ([1]; application rate 80 g/ha) | Pre-emergence efficacy against DIGSA ([4]; 80 g/ha) | Pre-emergence efficacy against DIGSA ([4]; 320 g/ha) | Pre-emergence efficacy against DIGSA ([4]; 1280 g/ha) | Post-emergence efficacy against DIGSA in % ([5]; application rate 80 g/ha) | Post-emergence efficacy against DIGSA in % ([5]; application rate 320 g/ha) | Pre-emergence efficacy against PHBPU ([2]; 80 g/ha) | Post-emergence efficacy against LOLRI (Lolium rigidum (LOLRI); 320 g/ha)
20% | O=S(=O)(CCCCl)Oc1ccccc1Oc1ncc(Cl)cn1 [Example I-2] | 90% | 90% | 100% | 100% | 100% | 90% | 100% | 90% | 90% | – | – | – | – | – | – | – | –
– | O=S(=O)(CC1CC(F)(F)C1)Oc1c(F)cccc1Oc1ncc(Cl)cn1 [Example I-53] | 100% | 90% | 90% | 90% | 90% | 100% | 80% | 90% | 90% | 90% | 100% | 100% | 100% | 90% | 90% | 100% | –
0% | O=S(=O)(CCC(F)(F)F)Oc1c(F)cccc1Oc1ncc(Cl)cn1 [Example I-48] | 100% | 90% | – | 90% | 90% | 100% | 100% | – | 90% | – | 100% | 100% | 100% | – | 100% | 100% | 90%
